Source: US20240317741A1, “NAPHTHYRIDINE DERIVATIVE AS ATR INHIBITOR AND METHOD FOR PREPARING SAME” (WIGEN BIOMEDICINE TECHNOLOGY (SHANGHAI) CO., LTD., priority 2021, published 2024)

Legend:
MIA PaCa-2 cells [1] = test: In-vitro anti-proliferative activity against MIA PaCa-2 cells; type: cell-based; conditions: 72 h after dosing, intracellular ATP content
Protocol: (§1) MIA PaCa-2 cells were seeded on a 384-well plate at 3000 cells/well. After overnight adherence culture, DMSO or the compounds serially diluted 1:5 from 5 μM were added. […] The inhibition percentage of viable cells by the compounds was calculated by comparing with the DMSO group, and the IC50 value was calculated.

MIA PaCa-2 cells [2] = test: In-vitro anti-proliferative activity in combination with gemcitabine against MIA PaCa-2 cells; type: cell-based; conditions: in combination with 20 nM gemcitabine, 72 h after dosing
Protocol: as §1, with “cells/well, and 20 nM gemcitabine was added.” for “cells/well.”, “100 nM” for “5 μM”

[3] = Liver microsomal stability (human); type: in vitro ADME; conditions: human liver microsomes, 1 μM compound, NADPH regeneration system, 37° C.; for half-life at 1 μM: read-out: T1/2 (min) Human
Protocol: (§2) After 1 μM compound was incubated with 500 µg/mL of human or mouse liver microsomes and a NADPH regeneration system at 37° C. for different times, respectively, LC-MS-MS was used to analyze the remaining amount of the compound and calculate T1/2.

[4] = Liver microsomal stability (mouse); type: in vitro ADME; conditions: mouse liver microsomes, 1 μM compound, NADPH regeneration system, 37° C.; for half-life at 1 μM: read-out: T1/2 (min) Mouse
Protocol: as §2

[5] = In vivo pharmacokinetic experiment in mice; set-up: species or system CD-1 female mice; conditions: for Vd: read-out: Vdss
Protocol: CD-1 female mice aged 7 to 10 weeks were intravenously administered and orally administered at a dose of 2 mg/kg and 10 mg/kg, respectively. The mice were fasted for at least 12 h before the administration and given food 4 h after the administration, and they were given ad libitum access to water during the experiment.
On the day of the experiment, animals in the intravenous group were administered the corresponding compound by single injection via the tail vein at an administration volume of 10 mL/kg, and animals in the oral group were administered the corresponding compound by single intragastric injection at an administration volume of 10 mL/kg. The animals were weighed before administration, and the administration volume was calculated according to the body weight. The sample collection time was 0.083 h, 0.167 h, 0.5 h, 1 h, 2 h, 4 h, 8 h and 24 h. About 200 μL of whole blood was collected through the orbital venous plexus at each time point and used to prepare plasma for concentration determination by high performance liquid chromatography-tandem mass spectrometry (LC-MS/MS). The plasma concentrations were processed using a non-compartmental model of Winnolin pharmacokinetic software, and the pharmacokinetic parameters were calculated using a linear-log trapezoidal method.

[6] = Pharmacokinetic evaluation in rats; type: in vivo, SD female rats
Protocol: SPF-grade SD female rats aged 7 to 10 weeks were intravenously administered and orally administered at a dose of 1 mg/kg and 10 mg/kg, respectively. The rats were fasted for at least 12 h before the administration and given food 4 h after the administration, and they were given ad libitum access to water during the experiment.
On the day of the experiment, animals in the intravenous group were administered the corresponding compound by single injection via the tail vein at an administration volume of 2 mL/kg, and animals in the oral group were administered the corresponding compound by single intragastric injection at an administration volume of 10 mL/kg. The animals were weighed before administration, and the administration volume was calculated according to the body weight. The sample collection time was 0.083 h (only intravenous group), 0.125 h (only oral group), 0.25 h, 0.5 h, 1 h, 2 h, 4 h, 6 h, 8 h and 24 h. About 200 μL of whole blood (EDTA-K2 anticoagulated) was collected via the jugular vein or other suitable vein at each time point and used to prepare plasma for concentration determination by high performance liquid chromatography-tandem mass spectrometry (LC-MS/MS). All animals were suffocated by CO2 after the PK samples were collected at the last time point. The plasma concentrations were processed using a non-compartmental model of Winnolin™ version 8.2 (Pharsight, mountain View, CA) pharmacokinetic software, and the pharmacokinetic parameters were calculated using a linear-log trapezoidal method.

[7] = test system: Human colon cancer LOVO cells; test: In vivo efficacy in LoVo model; set-up: species or system nude mouse; conditions: LoVo model in nude mice, 20 mpk BID PO, days 1-3, 8-10, 15-17 and day 21
Protocol: After being subcultured, the cells were collected when they reached the desired amount. 1×10^7 LOVO cells were injected into the left dorsal side of each nude mouse, and the animals were randomly grouped for administration after tumors grew to 100-200 mm^3. The groups were as follows: a solvent control group of 8 mice and a compound group of 8 mice. The compounds were administered orally 3 days a week and interrupted for 4 days, for 21 consecutive days. The vehicle was a 0.5% MC suspension containing 1% tween-80. On Tuesday and Thursday each week, tumor volumes and body weight of the mice were measured, and the nude mice were sacrificed on day 21 after the administration. […] The toxicity of the compounds was evaluated according to the body weight of the mice.

[8] = test system: Human colon cancer HT29 cells; test: In vivo efficacy in HT-29 model, alone and with gemcitabine; set-up: species or system nude mouse; conditions: HT-29 model in nude mice, day 21
Protocol: After being subcultured, the cells were collected when they reached the desired amount. 1×10^7 HT29 cells were injected into the left dorsal side of each nude mouse, and the animals were randomly grouped for administration after tumors grew to 100-200 mm^3. The groups were as follows: a solvent control group of 6 mice, a single drug group of 15 mg/kg gemcitabine (GMC), and a combination group of 15 mg/kg gemcitabine and a compound. Gemcitabine was administered intraperitoneally with PBS as a vehicle once a week. The compounds were administered 3 days a week and interrupted for 4 days (3 on/4 off), for 21 consecutive days, and the vehicle was a 0.5% MC suspension containing 1% tween-80. On Tuesday and Thursday each week, tumor volumes and body weight of the mice were measured, and the nude mice were sacrificed on day 21 after the administration. […] The toxicity of the compounds was evaluated according to the body weight of the mice.

[9] = female, CD-1, mouse, plasma, Oral administration (10 mg/kg)
[10] = female, CD-1, mouse, plasma, Oral administration (10 mg/kg), read-out: Cmax
[11] = female, CD-1, mouse, plasma, Oral administration (10 mg/kg), read-out: Tmax
[12] = female, CD-1, mouse, plasma, iv, Injection (2 mg/kg)
[13] = female, SD, rat, plasma, Oral administration (10 mg/kg)
[14] = female, SD, rat, plasma, iv, Injection (1 mg/kg)
[15] = compound 20 mpk BID PO 3 on/4 off + GMC 15 mpk QW IP
[16] = single agent, 20 mpk BID PO, 3on/4off

C[C@@H]1COCCN1c1cc(C2(C#N)CCOCC2)c2ccnc(-c3ccn[nH]3)c2n1 [Compound 29]
IC50 (MIA PaCa-2 cells [1]; Homo sapiens): < 1000 nM
IC50 (MIA PaCa-2 cells [2]): 1.5 nM
half-life at 1 μM [3]: 51.4 min
half-life at 1 μM [4]: 8.68 min
AUC(0-t) [5, 9]: 3300 ng·h/mL
bioavailability [5, 9]: 34.5%
half-life [5, 9]: 46.8 min
Cmax [5, 10]: 1720 ng/mL
Tmax [5, 11]: 30 min
AUC(0-t) [5, 12]: 1920 ng·h/mL
clearance [5, 12]: 17.4 mL/min/kg
half-life [5, 12]: 40.2 min
Vd [5, 12]: 0.58 L/kg
AUC(0-t) [6, 13]: 8030 ng·h/mL
bioavailability [6, 13]: 120%
half-life [6, 13]: 171 min
Cmax ([6]; female, SD, rat, plasma, Oral administration (10 mg/kg), read-out: Cmax): 1550 ng/mL
Tmax ([6]; female, SD, rat, plasma, Oral administration (10 mg/kg), read-out: Tmax): 60 min
AUC(0-t) [6, 14]: 669 ng·h/mL
clearance [6, 14]: 24.9 mL/min/kg
half-life [6, 14]: 103 min
Vd ([6]; female, SD, rat, plasma, iv, Injection (1 mg/kg), read-out: Vdss): 3 L/kg
TGI(%) [7]: 83.2%
TGI(%) [8, 15]: 85.3%
TGI(%) [8, 16]: 49.9%

(R)-1-(2-(3-methylmorpholino)-8-(1H-pyrazol-5-yl)-1,7-naphthyridin-4-ylmethyl)cyclohexane-1-carbonitrile [Compound 25]
IC50 (MIA PaCa-2 cells [1]): < 1000 nM
IC50 (MIA PaCa-2 cells [2]): 0.257 nM
T1/2 (min) Human [3]: 7.90 min
T1/2 (min) Mouse [4]: 2.90 min
AUC0-last ([5]; Injection (2 mg/kg)): 203.21 ng·h/mL
Cl ([5]; Injection (2 mg/kg)): 82.02 mL/min/kg
T1/2 ([5]; Injection (2 mg/kg)): 19.8 min
Vdss ([5]; Injection (2 mg/kg)): 1.84 L/kg
AUC0-last ([5]; Oral administration (10 mg/kg)): 1103.1 ng·h/mL
Cmax ([5]; Oral administration (10 mg/kg)): 455 ng/mL
F % ([5]; Oral administration (10 mg/kg)): 54.3%
T1/2 ([5]; Oral administration (10 mg/kg)): 53.4 min
Tmax ([5]; Oral administration (10 mg/kg)): 60 min
AUC0-last ([6]; Injection (1 mg/kg)): 269.92 ng·h/mL
Cl ([6]; Injection (1 mg/kg)): 61.75 mL/min/kg
T1/2 ([6]; Injection (1 mg/kg)): 39 min
Vdss ([6]; Injection (1 mg/kg)): 2.14 L/kg
AUC0-last ([6]; Oral administration (10 mg/kg)): 1309.43 ng·h/mL
Cmax ([6]; Oral administration (10 mg/kg)): 396.33 ng/mL
F % ([6]; Oral administration (10 mg/kg)): 48.5%
T1/2 ([6]; Oral administration (10 mg/kg)): 30 min
Tmax ([6]; Oral administration (10 mg/kg)): 54 min
TGI(%) [7]: 84.0%
TGI(%) [8, 15]: 86.1%

C[C@@H]1COCCN1c1cc(C2(C#N)CCN(C)CC2)c2ccnc(-c3ccn[nH]3)c2n1 [Compound 43]
IC50 (MIA PaCa-2 cells [1]; Homo sapiens): < 1000 nM
IC50 (MIA PaCa-2 cells [2]): 1.24 nM
half-life at 1 μM [3]: 9.44 min
half-life at 1 μM [4]: 18.9 min
AUC(0-t) [5, 9]: 439 ng·h/mL
bioavailability [5, 9]: 35.5%
half-life [5, 9]: 47.4 min
Cmax [5, 10]: 616 ng/mL
Tmax [5, 11]: 15 min
AUC(0-t) [5, 12]: 247 ng·h/mL
clearance [5, 12]: 135 mL/min/kg
half-life [5, 12]: 13.2 min
Vd [5, 12]: 1.79 L/kg
TGI(%) [7]: 75.3%
TGI(%) [8, 15]: 84.4%
TGI(%) [8, 16]: 51.2%
